Data taken from patent US8664391B2, “Amide compounds as boosters of antivirals” (Janssen R&D Ireland Ltd, priority 2008, dated 2014).
Read-outs that look alike come from different tables or passages of the source.

Tests used:
[1] = test system: wild-type HIV-1 IIIB strain; experiment: Antiviral activity in MT4 LTR-EGFP cellular assay; assay type: cell-based; settings: read-out: Antiviral Activity IIIB pEC50 (converted)
Description: (§1) Assay 1 &2: Antiviral Activity/Toxicity
The compounds of the present invention were tested for antiviral activity in a cellular assay, which was performed according to the following procedure.
The human T-cell line MT4 is engineered with Green Fluorescent Protein (GFP) and an HIV-specific promoter, HIV-1 long terminal repeat (LTR). This cell line is designated MT4 LTR-EGFP, and can be used for the in vitro evaluation of anti-HIV activity of investigational compounds. In HIV-1 infected cells, the Tat protein is produced which upregulates the LTR promotor and finally leads to stimulation of the GFP reporter production, allowing measuring ongoing HIV-infection fluorometrically.
(§2) The ratio of CC50 to EC50 is defined as the selectivity index (SI) and is an indication of the selectivity of the anti-HIV activity of the inhibitor. The ultimate monitoring of HIV-1 infection and cytotoxicity is done using a scanning microscope. Image analysis allows very sensitive detection of viral infection. Measurements are done before cell necrosis, which usually takes place about five days after infection, in particular measurements are performed three days after infection.
A pEC50 value corresponds to −log10(EC50). A pCC50 value corresponds to −log10(CC50).

CYP2D6 = target: T1, CYP2D6 (Homo sapiens, UniProt P10635); experiment: CYP450 inhibition, fluorescent substrate assay, CYP2D6; assay type: biochemical; settings: substrate AMMC 3 μM, read-out: 2D6-AMMC % inh.
T1 construct: host or cells: E. coli
T1 sequence (P10635 whole entry): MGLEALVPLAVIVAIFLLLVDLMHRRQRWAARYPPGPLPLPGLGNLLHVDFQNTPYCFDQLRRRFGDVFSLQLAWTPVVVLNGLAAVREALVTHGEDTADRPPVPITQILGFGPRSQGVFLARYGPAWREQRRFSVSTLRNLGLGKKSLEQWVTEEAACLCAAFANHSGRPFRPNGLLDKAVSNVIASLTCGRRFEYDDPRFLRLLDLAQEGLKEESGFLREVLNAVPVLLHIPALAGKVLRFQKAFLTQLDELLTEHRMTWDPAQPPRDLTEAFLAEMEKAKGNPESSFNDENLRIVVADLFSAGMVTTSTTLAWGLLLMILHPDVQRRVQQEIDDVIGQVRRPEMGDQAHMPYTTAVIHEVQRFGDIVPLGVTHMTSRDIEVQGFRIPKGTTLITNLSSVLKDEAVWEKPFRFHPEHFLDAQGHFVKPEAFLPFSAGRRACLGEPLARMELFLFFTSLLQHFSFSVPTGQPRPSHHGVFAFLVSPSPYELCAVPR
Description: (§3) Assay 4: CYP450 Inhibition […] This fluorescent molecule was measured using a fluorescent plate reader (Victor2 (Wallac) or Fluoroskan (Labsystems)). Compounds inhibiting the enzymatic reaction will result in a decrease of fluorescent signal. CYP P450 enzymes were prepared in house or commercially bought and stored at −80° C. [table] The assay was performed in black 96 well Costar plates. Test compounds were added to a CYP P450 enzyme solution in the presence of an NADPH generating system. After 5 min of preincubation at 37° C., the freshly prepared, phosphate buffered (pH 7.4) substrate solution was added. Known CYP P450 inhibitors were used as positive controls, negative controls were run without CYP P450 enzyme. For final reaction mixture concentrations, see Table 6. […] Then, the reaction was stopped by the addition of 200 μl acetonitrile, and the fluorescent signal was detected. [table] […] Inhibition of TMC114 Metabolisation

CYP1A2 = target: T2, CYP1A2 (Homo sapiens, UniProt P05177); experiment: CYP450 inhibition, fluorescent substrate assay, CYP1A2; assay type: biochemical; settings: substrate CEC 5 μM, read-out: 1A2-CEC % inh.
T2 construct: host or cells: E. coli
T2 sequence (P05177 1-516): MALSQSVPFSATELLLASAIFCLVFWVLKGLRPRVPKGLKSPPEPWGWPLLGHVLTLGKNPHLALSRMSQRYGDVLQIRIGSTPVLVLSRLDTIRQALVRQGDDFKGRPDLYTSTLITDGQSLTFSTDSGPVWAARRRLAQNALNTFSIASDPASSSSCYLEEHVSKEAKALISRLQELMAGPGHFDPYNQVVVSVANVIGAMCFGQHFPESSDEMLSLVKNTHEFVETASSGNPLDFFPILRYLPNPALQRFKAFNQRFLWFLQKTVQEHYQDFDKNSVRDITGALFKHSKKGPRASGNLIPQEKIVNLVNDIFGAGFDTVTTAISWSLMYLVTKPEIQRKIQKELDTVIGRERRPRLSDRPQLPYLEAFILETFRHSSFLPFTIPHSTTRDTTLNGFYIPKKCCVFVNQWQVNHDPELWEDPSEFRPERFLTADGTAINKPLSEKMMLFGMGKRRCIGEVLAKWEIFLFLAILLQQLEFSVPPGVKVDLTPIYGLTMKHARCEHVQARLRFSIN
Description: as §3

in vitro = in vitro ADME, human; settings: pH 7.4
Source text: Assay 3: Metabolic Stability of Test Compounds (HLM15′)
Sub-cellular tissue preparations are made according to Gorrod et al. (Xenobiotica, 5, pp. 453-462 (1975)) by centrifugal separation after mechanical homogenization of tissue. Human liver tissue is rinsed in ice-cold 0.1 M Tris-HCl (pH 7.4) buffer to wash excess blood. Tissue is then blotted dry, weighed and chopped coarsely using surgical scissors. The tissue pieces are homogenized in 3 volumes of ice-cold 0.1 M phosphate buffer (pH 7.4) using either a Potter-S (Braun, Italy) equipped with a Teflon pestle or a Sorvall Omni-Mix homogenizer, for 7×10 sec. In both cases, the vessel is kept in/on ice during the homogenization process. Tissue homogenates are centrifuged at 9000×g for 20 min at 4° C. using a Sorvall centrifuge or Beckman Ultracentrifuge. The resulting supernatant can be stored at −80° C. and is designated ‘S9’. The S9 fraction is centrifuged at 100,000×g for 60 min at 4° C. using a Beckman ultracentrifuge. The resulting supernatant is carefully aspirated, aliquoted and designated ‘cytosol’. The pellet is re-suspended in 0.1 M phosphate buffer (pH 7.4) in a final volume of 1 ml per 0.5 g original tissue weight and designated ‘microsomes’. All sub-cellular fractions are aliquoted, immediately frozen in liquid nitrogen and stored at −80° C. until use.
Heat-inactivated (10 min at 95° C.) ‘S9’ or microsomes were used for blank experiments. Reaction mixtures were incubated at 37° C. for 5 min, after which the reaction was started by the addition of 0.8 mM β-NADP. The reaction was incubated for 0 or 15 min. Next, the reaction was stopped by addition of 2 volumes of DMSO (or acetonitrile). Samples were centrifuged (10 min, 900×g) and analyzed by LC-MS.

CYP2C9 = CYP2C9 (Homo sapiens, UniProt P11712); experiment: CYP450 inhibition, fluorescent substrate assay, CYP2C9; assay type: biochemical
CYP2C9, sequence (P11712 whole entry): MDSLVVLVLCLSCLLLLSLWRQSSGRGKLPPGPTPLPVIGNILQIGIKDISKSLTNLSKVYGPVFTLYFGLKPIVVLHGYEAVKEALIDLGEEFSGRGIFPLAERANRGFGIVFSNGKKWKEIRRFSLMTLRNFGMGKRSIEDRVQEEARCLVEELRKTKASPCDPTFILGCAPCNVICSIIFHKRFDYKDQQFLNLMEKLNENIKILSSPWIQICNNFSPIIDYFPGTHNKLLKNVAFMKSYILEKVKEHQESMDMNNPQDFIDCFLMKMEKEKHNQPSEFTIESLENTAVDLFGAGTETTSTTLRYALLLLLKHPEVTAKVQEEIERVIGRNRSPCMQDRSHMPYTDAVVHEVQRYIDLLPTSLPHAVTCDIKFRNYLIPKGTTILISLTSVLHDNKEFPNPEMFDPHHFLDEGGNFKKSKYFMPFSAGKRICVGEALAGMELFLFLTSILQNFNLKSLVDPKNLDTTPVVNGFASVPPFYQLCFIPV
Description: as §3

[2] = Cytotoxicity in mock-infected MT4 CMV-EGFP cells; assay type: cell-based; settings: human, pCC50 = -log10(CC50), read-out: Toxicity MT4 pCC50 (converted)
Source text: as §1
Analogously, MT4 cells are engineered with GFP and the constitutional cytomegalovirus (CMV) promotor. This cell line is designated MT4 CMV-EGFP, and can be used for the in vitro evaluation of cytotoxicity of investigational compounds. In this cell line, GFP levels are comparably to those of infected MT4 LTR-EGFP cells. Cytotoxic investigational compounds reduce GFP levels of mock-infected MT4 CMV-EGFP cells.
as §2, with “Effective concentration values such as 50% effective concentration (EC50) can be determined and are usually expressed in μM. An EC50 value is defined as the concentration of test compound that reduces the fluorescence of HIV-infected cells by 50%. The 50% cytotoxic concentration (CC50 in μM) is defined as the concentration of test compound that reduces fluorescence of the mock-infected cells by 50%. The ratio” for “The ratio”
Table 2 lists pEC50 values against the wild-type HIV-1 IIIB strain as well as pCC50 values for a selected number of compounds of the invention. A pEC50 value corresponds to −log10(EC50). A pCC50 value corresponds to −log10(CC50).

CYP3A4 = target: T3, CYP3A4 (Homo sapiens, UniProt P08684); experiment: CYP450 inhibition, fluorescent substrate assay, CYP3A4; assay type: biochemical; settings: for inhibition at 10 min, 10 μM: substrate DBF 1 μM, read-out: 3A4-DBF % inh.
T3 construct: host or cells: E. coli
T3 sequence (P08684 whole entry): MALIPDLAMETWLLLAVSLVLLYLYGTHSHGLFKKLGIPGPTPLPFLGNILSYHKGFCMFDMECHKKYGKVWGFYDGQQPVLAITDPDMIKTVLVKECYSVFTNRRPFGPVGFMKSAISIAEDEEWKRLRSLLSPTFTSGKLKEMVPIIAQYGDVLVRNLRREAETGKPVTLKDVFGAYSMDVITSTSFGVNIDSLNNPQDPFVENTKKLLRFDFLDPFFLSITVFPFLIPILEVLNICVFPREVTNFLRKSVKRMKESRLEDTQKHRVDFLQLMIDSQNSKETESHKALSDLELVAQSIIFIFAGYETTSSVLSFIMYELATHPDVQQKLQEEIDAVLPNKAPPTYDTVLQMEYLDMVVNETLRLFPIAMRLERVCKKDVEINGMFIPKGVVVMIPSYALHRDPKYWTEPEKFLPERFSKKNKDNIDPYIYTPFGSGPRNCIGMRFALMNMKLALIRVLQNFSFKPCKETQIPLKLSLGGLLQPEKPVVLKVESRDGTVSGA
Description: as §3

CYP2C19 = target: T4, CYP2C19 (Homo sapiens, UniProt P33261); experiment: CYP450 inhibition, fluorescent substrate assay, CYP2C19; assay type: biochemical; settings: substrate CEC 25 μM, read-out: 2C19-CEC % inh.
T4 construct: host or cells: E. coli
T4 sequence (P33261 whole entry): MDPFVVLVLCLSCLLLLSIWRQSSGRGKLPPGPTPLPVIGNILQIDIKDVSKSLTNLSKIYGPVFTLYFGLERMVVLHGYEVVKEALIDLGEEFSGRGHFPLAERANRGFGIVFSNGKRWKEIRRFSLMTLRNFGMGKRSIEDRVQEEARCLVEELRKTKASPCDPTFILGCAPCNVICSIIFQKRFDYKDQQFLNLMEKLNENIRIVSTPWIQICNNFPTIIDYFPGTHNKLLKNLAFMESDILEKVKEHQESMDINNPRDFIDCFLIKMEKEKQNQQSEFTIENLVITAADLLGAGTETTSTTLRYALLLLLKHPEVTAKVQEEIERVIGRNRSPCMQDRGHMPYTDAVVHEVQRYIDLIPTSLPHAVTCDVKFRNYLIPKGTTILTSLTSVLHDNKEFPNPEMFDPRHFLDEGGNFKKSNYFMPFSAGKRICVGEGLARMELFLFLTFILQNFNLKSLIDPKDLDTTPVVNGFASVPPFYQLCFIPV
Description: as §3

[3] = Human immunodeficiency virus 1, IIIB, 72 h
[4] = E. coli expressed CYP2D6, pH 7.4, probe AMMC (3 μM), 10 μM test compound
[5] = E. coli expressed CYP1A2, pH 7.4, probe CEC (5 μM), 10 μM test compound
[6] = human liver microsomes 1 mg/ml, 5 μM test compound, 15 min, 37° C., read-out: % recovery HLM15
[7] = pH 7.4, 10 μM test compound, substrate MFC 200 μM, 30 min, read-out: 2C9-MFC % inh.
[8] = E. coli expressed CYP3A4, pH 7.4, probe BFC (150 μM), 10 μM test compound, substrate BFC 150 μM, read-out: 3A4-BFC % inh.
[9] = E. coli expressed CYP3A4, pH 7.4, probe BQ (60 μM), 10 μM test compound, substrate BQ 60 μM, read-out: 3A4-BQ % inh.
[10] = E. coli expressed CYP3A4, pH 7.4, probe DBF (1 μM), 10 μM test compound
[11] = E. coli expressed CYP2C19, pH 7.4, probe CEC (25 μM), 10 μM test compound
[12] = Human immunodeficiency virus 1, 72 h, wild-type HIV-1 IIIB, MT4 LTR-EGFP cells, three days after infection, pEC50 = -log10(EC50)

Row | Compound | EC50 [1, 3] [µM] | inhibition at 45 min, 10 μM (CYP2D6; [4]) [%] | inhibition at 15 min, 10 μM (CYP1A2; [5]) [%] | recovery at 15 min, 5 μM (in vitro; [6]) [%] | inhibition at 30 min, 10 μM (CYP2C9; [7]) [%] | CC50 at 3 days [2] [µM] | inhibition at 30 min, 10 μM (CYP3A4; [8]) [%] | inhibition at 30 min, 10 μM (CYP3A4; [9]) [%] | inhibition at 10 min, 10 μM (CYP3A4; [10]) [%] | inhibition at 30 min, 10 μM (CYP2C19; [11]) [%] | EC50 [1, 12] [µM] | recovery at 15 min, 5 μM (in vitro; human) [%] | inhibition at 30 min, 10 μM (CYP2C9; pH 7.4) [%] | inhibition at 45 min, 10 μM (CYP2D6; pH 7.4, 10 μM test compound) [%] | inhibition at 15 min, 10 μM (CYP1A2; pH 7.4, 10 μM test compound) [%] | inhibition at 30 min, 10 μM (CYP3A4; pH 7.4, 10 μM test compound, substrate BFC 150 μM, read-out: 3A4-BFC % inh.) [%] | inhibition at 30 min, 10 μM (CYP3A4; pH 7.4, 10 μM test compound, substrate BQ 60 μM, read-out: 3A4-BQ % inh.) [%] | inhibition at 10 min, 10 μM (CYP3A4; pH 7.4, 10 μM test compound) [%] | inhibition at 30 min, 10 μM (CYP2C19; pH 7.4, 10 μM test compound) [%]
1 | CC(C)CN(C[C@@H](O)[C@H](Cc1ccccc1)NC(=O)OCc1cncs1)C(=O)c1cccc(Br)c1 [Compound C17] | 41.7 | 46 | 55 | 68 | 98 | 36.3 | 57 | 81 | 93 | 87 | – | – | – | – | – | – | – | – | –
2 | CC(C)CN(C[C@@H](O)[C@H](Cc1ccccc1)NC(=O)OCc1cncs1)C(=O)c1ccc(Br)cc1 [Compound C18] | 38.9 | 64 | 63 | 57 | 98 | 41.7 | 83 | 84 | 94 | 93 | – | – | – | – | – | – | – | – | –
3 | CC(C)CN(C[C@@H](O)[C@H](Cc1ccccc1)NC(=O)OCc1cccnc1)C(=O)c1ccncc1 [Compound C20] | – | 13 | 6 | – | – | > 100 | 88 | 66 | 85 | 41 | > 100 | 37 | 63 | – | – | – | – | – | –
4 | CC(C)CN(C[C@@H](O)[C@H](Cc1ccccc1)NC(=O)OCc1cncs1)C(=O)c1ccco1 [Compound C21] | > 100 | – | – | 62 | 95 | > 100 | – | – | – | – | – | – | – | 62 | 43 | 87 | 81 | 95 | 75
5 | CC(C)(C)CN(C[C@@H](O)[C@H](Cc1ccccc1)NC(=O)OCc1cncs1)C(=O)c1ccncc1 [Compound C22] | – | 62 | 0 | – | – | > 100 | 93 | 74 | 89 | 60 | > 100 | 77 | 69 | – | – | – | – | – | –
6 | CC(C)CN(C[C@@H](O)[C@H](Cc1ccccc1)NC(=O)OCc1cncs1)C(=O)C1CCC(F)(F)CC1 [Compound C23] | – | 65 | 22 | – | – | 55 | 94 | 73 | 92 | 77 | 51.3 | 72 | 89 | – | – | – | – | – | –
7 | CC(C)CN(C[C@@H](O)[C@H](Cc1ccccc1)NC(=O)OCc1cncs1)C(=O)CCc1cncs1 [Compound C24] | – | 96 | 13 | – | – | > 100 | 101 | 82 | 89 | 86 | 97.7 | 56 | 92 | – | – | – | – | – | –
8 | CC(C)CN(C[C@@H](O)[C@H](Cc1ccccc1)NC(=O)OCc1cncs1)C(=O)OCc1cncs1 [Compound C25] | – | 91 | 25 | – | – | 77.6 | 100 | 79 | 89 | 97 | 69.2 | 63 | 95 | – | – | – | – | – | –
